From patent US9561228B2 (Celgene Avilomics Research, Inc., priority 2013, dated 2017)

Tests used:
[1] = system: ERK1/2 phosphorylation of p90RSK in HT29 cells; experiment: pRSK MSD Assay in HT29 cells; assay type: cell-based; settings: Homo sapiens, HT-29, read-out: ERK1/ERK2 PRSK MSD HT29 EC50
How it was run: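 Serum-starved HT29 cells (0.1% FBS overnight) treated with test compound for 120 min at 37° C, then lysed with protease and phosphatase inhibitors. Phospho-p90RSK quantified by MSD sandwich immunoassay: RSK capture antibody, phospho-RSK detection antibody plus Sulfo-tagged antibody, electrochemiluminescence read.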

[2] = molecular target: T1, MEK1 activated ERK1 (Homo sapiens, UniProt P27361); experiment: Omnia continuous-read kinase assay for potency against MEK1 activated ERK1; assay type: biochemical; settings: MEK1 activated ERK1, ATP at KM; read-out: ERK1 Omnia WT ATP KM IC50
T1 construct: purchased Millipore (Billerica, Mass.) 14-439-K
How it was run: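 Apparent IC50 came from initial reaction slopes (RFU vs time) plotted against log inhibitor with a variable-slope fit. Reactions were started with ERK1 (4 nM final) added to 50 μM ATP, roughly at its appKM, and 10 μM Sox-conjugated ST17 peptide in 20 mM Tris pH 7.5, 5 mM MgCl2. Fluorescence was monitored every 71 seconds.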

[3] = system: HT-29 cells (colorectal adenocarcinoma); experiment: Inhibition of cancer cell proliferation, HT-29 (CellTiterGlo, 72 hours); assay type: cell-based; settings: Homo sapiens
How it was run: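 HT-29 cells seeded at 3000/well, then treated with 3-fold serial dilutions from a 5,000 nM two-fold solution in serum-free RPMI1640, untreated wells as control, for 72 h at 37° C. CellTiterGlo luminescence converted to cell number via a standard curve; GI50 from percent inhibition versus untreated growth.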

T1 sequence (P27361 whole entry): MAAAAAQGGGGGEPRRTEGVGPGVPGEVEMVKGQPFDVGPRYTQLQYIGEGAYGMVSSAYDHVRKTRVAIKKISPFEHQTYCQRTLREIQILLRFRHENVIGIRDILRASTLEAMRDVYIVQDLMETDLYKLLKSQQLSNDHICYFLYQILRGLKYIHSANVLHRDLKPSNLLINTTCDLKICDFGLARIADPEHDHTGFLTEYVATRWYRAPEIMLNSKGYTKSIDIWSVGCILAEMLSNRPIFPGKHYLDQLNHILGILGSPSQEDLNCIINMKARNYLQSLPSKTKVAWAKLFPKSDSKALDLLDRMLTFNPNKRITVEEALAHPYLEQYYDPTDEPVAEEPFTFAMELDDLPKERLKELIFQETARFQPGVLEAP

Row | EC50 [1] | IC50 [2] | GI50 [3] | Structure (SMILES)
1 | < 100 nM | 101 to 500 nM | – | C=CC(=O)Nc1cc(C)ccc1Nc1nc(Nc2cc(C)nc(OC)c2)ncc1C(F)(F)F [Compound I-295, N-(2-((2-((2-methoxy-6-methylpyridin-4-yl)amino)-5-(trifluoromethyl)pyrimidin-4-yl)amino)-5-methylphenyl)acrylamide]
2 | 101 to 500 nM | 501 to 999 nM | < 100 nM | C=CC(=O)Nc1cc(C)ccc1Nc1nc(Nc2cc(OC)nc(N(C)C3CC3)c2)ncc1C(F)(F)F [Compound I-342, N-(2-((2-((2-(cyclopropyl(methyl)amino)-6-methoxypyridin-4-yl)amino)-5-(trifluoromethyl)pyrimidin-4-yl)amino)-5-methylphenyl)acrylamide]
3 | – | – | < 100 nM | C=CC(=O)Nc1ccccc1Nc1nc(Nc2cc(OC)nc(N3CCN(C)CC3)c2)ncc1C(F)(F)F [Compound I-324, N-(2-((2-((2-methoxy-6-(4-methylpiperazin-1-yl)pyridin-4-yl)amino)-5-(trifluoromethyl)pyrimidin-4-yl)amino)phenyl)acrylamide]
4 | < 100 nM | – | < 100 nM | C=CC(=O)Nc1ccccc1Nc1nc(Nc2cc(NCCOC)nc(OC)c2)ncc1C(F)(F)F [Compound I-286, N-(2-((2-((2-Methoxy-6-((2-methoxyethyl)amino)pyridin-4-yl)amino)-5-(trifluoromethyl)pyrimidin-4-yl)amino)phenyl)acrylamide]
5 | 101 to 500 nM | – | < 100 nM | C=CC(=O)Nc1cc(OC)ccc1Nc1nc(Nc2cc(OC)nc(N3CCN(C(C)=O)CC3)c2)ncc1C(F)(F)F [Compound I-91, N-(2-((2-((2-(4-Acetylpiperazin-1-yl)-6-methoxypyridin-4-yl)amino)-5-(trifluoromethyl)pyrimidin-4-yl)amino)-5-methoxyphenyl)acrylamide]
6 | < 100 nM | – | < 100 nM | C=CC(=O)Nc1cc(OC)ccc1Nc1nc(N[C@H]2CCCN(C(=O)CO)C2)ncc1C(F)(F)F [Compound I-64, (S)—N-(2-((2-((1-(2-Hydroxyacetyl)piperidin-3-yl)amino)-5-(trifluoromethyl)pyrimidin-4-yl)amino)-5-methoxyphenyl)acrylamide]
7 | < 100 nM | – | < 100 nM | C=CC(=O)Nc1cc(OC)ccc1Nc1nc(Nc2cc(OC)nc(N3CCN(C)CC3)c2)ncc1C(F)(F)F [Compound I-334, N-(5-methoxy-2-((2-((2-methoxy-6-(4-methylpiperazin-1-yl)pyridin-4-yl)amino)-5-(trifluoromethyl)pyrimidin-4-yl)amino)phenyl)acrylamide]
8 | 101 to 500 nM | 501 to 999 nM | – | C=CC(=O)Nc1ccccc1Nc1nc(Nc2cc(F)ccc2C)ncc1C(F)(F)F [Compound I-285, N-(2-((2-((5-Fluoro-2-methylphenyl)amino)-5-(trifluoromethyl)pyrimidin-4-yl)amino)phenyl)acrylamide]
9 | < 100 nM | – | < 100 nM | C=CC(=O)Nc1cc(C)ccc1Nc1nc(Nc2cc(OC)nc(N3CCN(C(C)=O)CC3)c2)ncc1Cl [Compound I-296, N-(2-((2-((2-(4-acetylpiperazin-1-yl)-6-methoxypyridin-4-yl)amino)-5-chloropyrimidin-4-yl)amino)-5-methylphenyl)acrylamide]
10 | – | < 100 nM | – | C=CC(=O)Nc1ccccc1Nc1nc(Nc2cc(N[C@H]3CC[C@@H](O)CC3)nc(OC)c2)ncc1C(F)(F)F [Compound I-292]
11 | < 100 nM | – | < 100 nM | C=CC(=O)Nc1ccccc1Nc1nc(Nc2cc(OC)nc(N3CCS(=O)(=O)CC3)c2)ncc1C(F)(F)F [Compound I-291, N-(2-((2-((2-(1,1-Dioxidothiomorpholino)-6-methoxypyridin-4-yl)amino)-5-(trifluoromethyl)pyrimidin-4-yl)amino)phenyl)acrylamide]
12 | < 100 nM | – | < 100 nM | C=CC(=O)Nc1cc(C)ccc1Nc1nc(N[C@H]2CCCN(C(=O)CO)C2)ncc1Cl [Compound I-140, (S)—N-(2-((5-chloro-2-((1-(2-hydroxyacetyl)piperidin-3-yl)amino)pyrimidin-4-yl)amino)-5-methylphenyl)acrylamide]

The next lines start with the molecule.

Row | Structure (SMILES) | EC50 [1] | IC50 [2] | GI50 [3]
13 | C=CC(=O)Nc1ccccc1Nc1nc(Nc2ccnnc2)ncc1C(F)(F)F [Compound I-293, N-(2-((2-(Pyridazin-4-ylamino)-5-(trifluoromethyl)pyrimidin-4-yl)amino)phenyl)acrylamide] | 101 to 500 nM | 101 to 500 nM | < 100 nM
14 | C=CC(=O)Nc1cc(OC)ccc1Nc1nc(Nc2cc(OC)ncc2C)ncc1C(F)(F)F [Compound I-284, N-(5-Methoxy-2-((2-((2-methoxy-5-methylpyridin-4-yl)amino)-5-(trifluoromethyl)pyrimidin-4-yl)amino)phenyl)acrylamide] | < 100 nM | – | 501 to 999 nM
15 | C=CC(=O)Nc1cc(C)ccc1Nc1nc(Nc2cc(OC)ncc2C)ncc1C(F)(F)F [Compound I-90, N-(2-((2-((2-Methoxy-5-methylpyridin-4-yl)amino)-5-(trifluoromethyl)pyrimidin-4-yl)amino)-5-methylphenyl)acrylamide] | < 100 nM | – | 101 to 500 nM
16 | C=CC(=O)Nc1ccccc1Nc1nc(Nc2cc(OC)nc(OCCOC)c2)ncc1C(F)(F)F [Compound I-283, N-(2-((2-((2-Methoxy-6-(2-methoxyethoxyl)pyridin-4-yl)amino)-5-(trifluoromethyl)pyrimidin-4-yl)amino)phenyl)acrylamide] | < 100 nM | – | < 100 nM
17 | C=CC(=O)Nc1ccccc1Nc1nc(Nc2ccnc(F)c2)ncc1C(F)(F)F [Compound I-287, N-(2-((2-((2-Fluoropyridin-4-yl)amino)-5-(trifluoromethyl)pyrimidin-4-yl)amino)phenyl)acrylamide] | < 100 nM | 101 to 500 nM | –
18 | C=CC(=O)Nc1ccccc1Nc1nc(Nc2cc(OC)nc(N3CCCC3)c2)ncc1C(F)(F)F [Compound I-281, N-(2-((2-((2-Methoxy-6-(pyrrolidin-1-yl)pyridin-4-yl)amino)-5-(trifluoromethyl)pyrimidin-4-yl)amino)phenyl)acrylamide] | < 100 nM | – | < 100 nM
19 | C=CC(=O)Nc1cc(C)ccc1Nc1nc(Nc2cc(N[C@H]3CC[C@@H](O)CC3)nc(OC)c2)ncc1C(F)(F)F [Compound I-326, N-(2-((2-((2-((cis-4-hydroxycyclohexyl)amino)-6-methoxypyridin-4-yl)amino)-5-(trifluoromethyl)pyrimidin-4-yl)amino)-5-methylphenyl)acrylamide] | – | 101 to 500 nM | –
20 | C=CC(=O)Nc1cc(C)ccc1Nc1nc(Nc2cc(OC)cc(OC)c2)ncc1C(F)(F)F [Compound I-339, N-(2-((2-((3,5-dimethoxyphenyl)amino)-5-(trifluoromethyl)pyrimidin-4-yl)amino)-5-methylphenyl)acrylamide] | – | – | < 100 nM
21 | C=CC(=O)Nc1cc(OC)ccc1Nc1nc(Nc2cc(OC)nc(N3CCN(CC)CC3)c2)ncc1C(F)(F)F [Compound I-88, N-(2-((2-((2-(4-Ethylpiperazin-1-yl)-6-methoxypyridin-4-yl)amino)-5-(trifluoromethyl)pyrimidin-4-yl)amino)-5-methoxyphenyl)acrylamide] | 101 to 500 nM | – | < 100 nM
22 | C=CC(=O)Nc1cc(C)ccc1Nc1nc(Nc2cc(OC)nc(N3CC(O)C3)c2)ncc1C(F)(F)F [Compound I-328, N-(2-((2-((2-(3-hydroxyazetidin-1-yl)-6-methoxypyridin-4-yl)amino)-5-(trifluoromethyl)pyrimidin-4-yl)amino)-5-methylphenyl)acrylamide] | < 100 nM | – | < 100 nM
23 | C=CC(=O)Nc1cc(C)ccc1Nc1nc(Nc2ccnc(F)c2)ncc1C(F)(F)F [Compound I-288, N-(2-((2-((2-Fluoropyridin-4-yl)amino)-5-(trifluoromethyl)pyrimidin-4-yl)amino)-5-methylphenyl)acrylamide] | 101 to 500 nM | 501 to 999 nM | –
24 | C=CC(=O)Nc1ccccc1Nc1nc(Nc2cc(OC)nc(OC)c2)ncc1C(F)(F)F [Compound I-95, N-(2-((2-((2,6-Dimethoxypyridin-4-yl)amino)-5-(trifluoromethyl)pyrimidin-4-yl)amino)phenyl)acrylamide] | < 100 nM | – | < 100 nM
25 | C=CC(=O)Nc1cc(C)ccc1Nc1nc(Nc2cc(OC)ccc2C)ncc1C(F)(F)F [Compound I-341, N-(2-((2-((5-methoxy-2-methylphenyl)amino)-5-(trifluoromethyl)pyrimidin-4-yl)amino)-5-methylphenyl)acrylamide] | 101 to 500 nM | 501 to 999 nM | –
26 | C=CC(=O)Nc1ccccc1Nc1nc(Nc2cc(C(N)=O)ccc2C)ncc1C(F)(F)F [Compound I-68, 3-(4-(2-Acrylamidophenylamino)-5-(trifluoromethyl)pyrimidin-2-ylamino)-4-methylbenzamide] | < 100 nM | – | < 100 nM
27 | C=CC(=O)Nc1cc(F)ccc1Nc1nc(Nc2cc(OC)ncc2C)ncc1C(F)(F)F [Compound I-322, N-(5-fluoro-2-((2-((2-methoxy-5-methylpyridin-4-yl)amino)-5-(trifluoromethyl)pyrimidin-4-yl)amino)phenyl)acrylamide] | < 100 nM | – | 101 to 500 nM
28 | C=CC(=O)Nc1cc(OC)ccc1Nc1nc(Nc2cc(OC)ncc2C)ncc1Cl [Compound I-242, N-(2-((5-chloro-2-((2-methoxy-5-methylpyridin-4-yl)amino)pyrimidin-4-yl)amino)-5-methoxyphenyl)acrylamide] | < 100 nM | – | < 100 nM
